According to US20250019386A1, “PYRROLO[1,2-b]-2-PYRIDAZINONE COMPOUNDS AS 5-HT4 RECEPTOR AGONISTS” (SUVEN LIFE SCIENCES LIMITED, priority 2022, published 2025):

Columns and labels:
[1] = biological target: hERG tail currents in HEK293-hERG cells (Homo sapiens (Human), UniProt Q12809); assay: hERG patch-clamp assay; format: cell-based; details: whole cell patch-clamp, tail current at -40 mV, read-out: half maximal inhibitory concentration of hERG tail currents (IC50)
Procedure: The HEK293-hERG cells for patch-clamp assay were cultured in DMEM: Ham's F12 (1:1 ratio) with 10% fetal bovine serum containing 0.5 mg/ml of selective antibiotic, G-418 sulfate (Calbiochem) and 0.1% penicillin and streptomycin (Thermofisher, MA, USA) in T-75 flask. Cells were harvested at 70-80% confluency by washing with Hanks' Balanced Salt Solution lacking Mg^2+ and Ca^2+ ions and subsequent addition of accumax (2.5 mL) (Sigma Aldrich, MO, USA) and incubated the flask at 5% CO2 and 37° C. until cells start sliding of the surface. After cells have completely detached from the surface about 10 mL of complete media without selective antibiotic was added and pipetted to detach the cell clumps. Additional 7.5 mL of complete media was added to collect the residual cells in the flask and cell suspension was incubated at 5% CO2 and 37° C. for 30 min. […] The peak current is measured at −40 mV tail currents using Patchliner instrument. The I-V pulse protocol was pulsed every 10 s and online analysis were recorded by substituting the leak current from the peak current and IC50 values were calculated from IGOR PRO software (WaveMetrics, Inc. Portland, OR, USA).

[2] = Rat brain penetration study; format: in vivo; details: brain/plasma, oral (gavage) 3 mg/kg, male Wistar rats, brain concentrations below LLOQ taken as zero, read-out: Single dose Brain Penetration (Cb/Cp)
Procedure: Male Wistar rats (225±25 g) were used as experimental animals. Three animals were housed in each cage. Animals were given water and food ad libitum throughout the experiment and maintained on a 12 h light/dark cycle.
Brain penetration was determined in discrete manner in rats. One day prior to dosing day, male Wistar rats were acclimatized. After acclimatization, the rats were grouped according to their weight. In each group, 3 animals were kept in individual cages and allowed free access to food and water. At each time point (0.5, 1, and 2 h) n=3 animals were used.
The compounds of formula (I) were suitably preformulated and administered orally at (free base equivalent) 3 mg/kg. Blood samples were collected via, cardiac puncture by using isoflurane anesthesia. The animals were sacrificed to collect brain tissue. Plasma was separated and brain samples were homogenized and stored frozen at −20° C. until analysis.
The concentrations of the compounds of formula (I) were quantified in plasma and brain homogenate by qualified LC-MS/MS method using a suitable extraction technique. The compounds of formula (I) were quantified in the calibration range of 1-2000 ng/mL in plasma and brain homogenate. Study samples were analyzed using calibration samples in the batch and quality control samples spread across the batch. Extent of brain-plasma ratio was calculated (Cb/Cp). Brain concentrations were found below LLOQ and a value of zero was considered for calculation purposes.

[3] = Rat pharmacokinetic study; format: in vivo; details: male Wistar rats, plasma
Procedure: Male Wistar rats (250±50 g) were used as experimental animals. Animals were housed individually in polypropylene cages. Two days prior to study, rats were anesthetized with isoflurane for surgical placement of jugular vein catheter. Rats were randomly divided for oral (3 mg/kg and 10 mL/kg as dose volume) and intravenous (1 mg/kg and 2 mL/kg as dose volume) dosing (n=3/group) and fasted overnight before oral dosing (p.o.). However, rats allocated to intravenous dosing food and water was provided ad libitum.
Intravenous formulation was prepared by using water for injection as vehicle. For Oral, formulation was prepared by using reagent grade water as vehicle. The dose formulations were prepared freshly on the day of dosing.
After dosing of animal, each time point a 200 μL of blood sample was collected through jugular vein and replenished with an equivalent volume of normal saline. The collected blood sample was transferred into a labeled eppendorf tube containing 10 μL of sodium heparin (1000 IU/mL) as an anticoagulant. Typically blood samples were collected at following time points: 0.08, 0.25, 0.5, 1, 2, 4, 6, 8, and 24 h post dose. Blood was centrifuged at 4000 rpm for 10 min. Plasma was separated and stored frozen at −80° C. until analysis. The concentrations of the test compounds were quantified in plasma by qualified LC-MS/MS method using a suitable extraction technique. The test compounds were quantified in the calibration range around 1-2000 ng/mL in plasma. Study samples were analyzed using calibration samples in the batch and quality control samples spread across the batch.
Pharmacokinetic parameters Cmax, AUCt, t1/2 and bioavailability were calculated by non-compartmental model using standard non-compartmental model by using Phoenix WinNonlin 6.4 version Software.

[4] = test system: intestinal (jejunum) EMG activity; assay: Intestinal myoelectrical activity in male Wistar rats; format: in vivo; details: p.o.
Procedure: Method: The telemetry transmitter (F40-EET; DSI, MA, USA) was implanted subcutaneously in the rat and the spring electrodes were implanted into the walls of intestine (jejunum) under isoflurane anesthesia. After two weeks of surgical recovery, animals were fasted for 14 h and transferred to recording cages. The transmitter was switched on using magnetic switch and baseline intestinal EMG activity was recorded for 3 h. Rats were treated with vehicle, test compound of example 2 (10 or 30 mg/kg, p.o.) or positive control, prucalopride (10 mg/kg, p.o.) was administered and EMG signals were recorded for additional 3 h using Ponemah software (DSI, MA, USA). Animals were given access to only water during study. The recorded EMG signal was filtered using 20-50 Hz band filter and spiking activity was measured in bouts of 30 min using NeuroScore software (DSI, MA, USA).

colonic transit = assay: Effect on colonic transit in Swiss mice; format: in vivo, Male Swiss mice; details: 1 and 3 mg/kg, p.o., carmine dye, 3 h after dye
Procedure: Male Swiss mice of body weight ˜20-30 g were fasted for 16 h with free access to water prior to the experiment. Mice were administrated compound of example 2 or vehicle, 30 min after administration of 0.5 ml of carmine dye solution. Mice were sacrificed 3 h after dye administration and the distance traveled by the dye from proximal colon was measured. Colonic transit was expressed as % colonic transit=100×(length of colon in which carmine moved/total length of colon).

hERG tail currents in HEK293-hERG cells, sequence (Q12809 whole entry): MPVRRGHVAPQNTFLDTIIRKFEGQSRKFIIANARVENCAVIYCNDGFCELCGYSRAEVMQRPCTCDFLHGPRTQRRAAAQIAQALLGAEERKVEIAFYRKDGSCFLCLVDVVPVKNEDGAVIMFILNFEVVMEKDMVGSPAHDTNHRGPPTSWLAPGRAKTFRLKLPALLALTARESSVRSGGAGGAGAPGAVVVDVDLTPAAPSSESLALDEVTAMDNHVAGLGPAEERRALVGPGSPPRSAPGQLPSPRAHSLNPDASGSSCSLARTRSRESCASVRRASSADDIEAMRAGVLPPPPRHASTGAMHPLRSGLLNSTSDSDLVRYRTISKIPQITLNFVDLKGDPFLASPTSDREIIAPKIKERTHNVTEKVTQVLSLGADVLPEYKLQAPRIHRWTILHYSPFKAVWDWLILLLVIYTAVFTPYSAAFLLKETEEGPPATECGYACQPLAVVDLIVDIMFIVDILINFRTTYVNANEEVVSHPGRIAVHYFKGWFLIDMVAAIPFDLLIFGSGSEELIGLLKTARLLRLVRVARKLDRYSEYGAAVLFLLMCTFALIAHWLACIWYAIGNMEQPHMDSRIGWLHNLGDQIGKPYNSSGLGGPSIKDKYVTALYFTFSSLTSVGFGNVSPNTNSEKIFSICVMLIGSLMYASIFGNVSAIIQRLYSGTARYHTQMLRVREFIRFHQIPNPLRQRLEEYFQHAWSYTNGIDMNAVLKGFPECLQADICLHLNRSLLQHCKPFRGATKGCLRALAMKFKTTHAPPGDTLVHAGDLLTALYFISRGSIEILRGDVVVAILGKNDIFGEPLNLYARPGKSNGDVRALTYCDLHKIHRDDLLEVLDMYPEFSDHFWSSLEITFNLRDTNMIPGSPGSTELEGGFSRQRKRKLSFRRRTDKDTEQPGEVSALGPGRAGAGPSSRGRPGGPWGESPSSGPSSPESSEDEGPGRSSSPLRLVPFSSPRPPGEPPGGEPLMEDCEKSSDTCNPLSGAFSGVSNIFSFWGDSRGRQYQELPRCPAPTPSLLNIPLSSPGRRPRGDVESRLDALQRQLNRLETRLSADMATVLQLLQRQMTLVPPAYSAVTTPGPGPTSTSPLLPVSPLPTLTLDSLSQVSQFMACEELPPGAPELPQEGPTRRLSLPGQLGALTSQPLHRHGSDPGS

Compound: CC(C)n1c(=O)c(C(=O)NC2CC3CCC(C2)N3C[C@@H](O)CN(C)S(C)(=O)=O)cc2cccn21.O=C(O)C(O)C(O)C(=O)O (single isomer, unassigned) [Example 2]
- IC50 [1]: > 10 µM
- Kp [2]: 0
- AUC(0-t) ([3]; intravenous (bolus), 1 mg/kg): 65 ± 3 ng·h/mL
- half-life ([3]; intravenous (bolus), 1 mg/kg): 1.5 ± 0.5 h
- AUC(0-t) ([3]; oral (gavage), 3 mg/kg): 160 ± 35 ng·h/mL
- Cmax ([3]; oral (gavage), 3 mg/kg): 51 ± 19 ng/mL
- bioavailability ([3]; oral 3 mg/kg vs intravenous 1 mg/kg): 83 ± 18%
- increase in myoelectric activity ([4]; 30 mg/kg, jejunum EMG spiking): 97±31%
- myoelectric activity ([4]; 10 or 30 mg/kg): dose-dependent increase in myoelectric activity
- colonic transit (colonic transit): increased the colonic transit
